Measured values published in patent US20090281049A1, “New use of ginsenoside compound-k in manufacturing medicaments” (priority 2006, published 2009).

Tests used:
[1] = tested on: Collagen Type II (CII) induced arthritis in rats; test: Preventive effect on Collagen Type II (CII) induced arthritis in rats; assay type: in vivo, Rat, SD strain; details: 9 mg/kg sc
Method: (§1) Inflammation-induced agent: Collagen Type II was dissolved in 0.1 mol/L acetic acid to make final concentration be 2 mg/ml collagen solution, and held in 4° C. overnight. The Collagen Type II solution was added to cold Freund's Adjuvant Incomplete by drops (Collagen Type II: Freund's Adjuvant Incomplete=1:1) on the next day, emulsified completely (Type II Collagen solution: Freund's Adjuvant Incomplete=1:1), and the final concentration of Collagen Type II was 1 mg/ml. The Collagen Type II emulsion was reserved in a refrigerator at 4° C.
(§2) Immune method: Each rat was immunized by being injected subcutaneously at 5 points on the back with 0.1 ml emulsion in each point, total of […] (contained 0.5 mg Collagen Type II), and immunized again in the same way 7 days later. An emulsion of 0.1 mol/L acetic acid and Freund's Adjuvant Incomplete was injected in control group. The swell values of the arthrosis in right hind ankle and foot were measured respectively by using a hydroplethismometer before injection and 20 days after immunization.
The Collagen Type II solution, which had been dissolved in acetic acid and held overnight, was adjusted to concentration 2 mg/ml, then added by drops slowly to Freund's Adjuvant Incomplete in proportion of 1:1. After the mixture was emulsified completely, each rat was injected subcutaneously at 5 points on the back with 0.1 ml emulsion in each point (total 0.5 ml in each rat, containing 0.5 mg Collagen Type II) for the first immunization. 7 days later, the second immunization was repeated in the same way.
The animals were divided into large dose group: Ginsenoside Compound-K, 10 mg/kg, iv, medium dose group: Ginsenoside Compound-K, 5 mg/kg, iv, small dose group: Ginsenoside Compound-K, 2.5 mg/kg, iv, Tripterygium Wilfordii Hook group: 1.5 mg/kg, po-, Enbrel group: 9 mg/kg, sc and blank control group: physiological saline 10 mg/kg, iv. The animals of administration groups were administered at the first immunization and stopped administering 8 days after the first immunization. The swell value of arthrosis in ankle and foot was measured by using hydroplethismometer before immunization and on day 20, 22, 24, 27 and 29 after the first immunization respectively. Swell rate and inhibition rate were calculated by the same method as the foregoing. Differences among groups were compared with t test. When the treatment finished, the arthroses in ankle and foot were taken for pathological examination.

[2] = tested on: Collagen Type II (CII) induced arthritis in rats; test: Treatment effect on Collagen Type II (CII) induced arthritis in rats; assay type: in vivo, Rat, SD strain; details: 9 mg/kg sc
Method: as §1, §2
Collagen Type II (CII) and Freund's Adjuvant Incomplete were ground into emulsion and were injected subcutaneously into the back of the rats for immunization. Until the 19th day, most parts of the pedal joint of the rats began to swell. Picked 40 rats out which were with swelled pedal joint and divided them into […] subsequently, i.e. 8 rats in each group. They are respectively […]: Ginsenoside Compound-K, 10 mg/kg, iv, medium dose group: Ginsenoside Compound-K, 5 mg/kg, iv, small dose group: Ginsenoside Compound-K, 2.5 mg/kg, iv, Enbrel group: 9 mg/kg, sc, Tripterygium Wilfordii Hook group: 1.5 mg/kg, po. and blank control group: physiological saline 10 mg/kg, iv. The rats were administered for 8 days consecutively. The swell value of the foot was measured respectively by using hydroplethismometer before inflammation induced and at different time after the onset of symptoms, then calculated swell rate and prohibition rate, and compared the differences among groups with t test.

In the case of enbrel, the swell value ([1]; 0 day) is reported as 1.06 ± 0.04 mL, the inhibition rate ([1]; 20 day) is reported as <30.52> % and the swell rate ([1]; 20 day) is reported as “(36.48 ± 15.50) %”. For the same substance, the swell value ([1]; 20 day) was 1.38 ± 0.20 mL, the inhibition rate ([1]; 22 day) was <31.53> % and the swell rate ([1]; 22 day) was “(35.30 ± 14.25) %”. The swell value ([1]; 22 day) was 1.36 ± 0.22 mL, the inhibition rate ([1]; 24 day) was <35.50> % and the swell rate ([1]; 24 day) was “(33.88 ± 13.57) %”. The swell value ([1]; 24 day) was 1.34 ± 0.21 mL, the inhibition rate ([1]; 27 day) was <36.49> % and the swell rate ([1]; 27 day) was “(32.16 ± 15.12) %”. For the same substance, the swell value ([1]; 27 day) was 1.34 ± 0.20 mL, the inhibition rate ([1]; 29 day) was <36.99> % and the swell rate ([1]; 29 day) was “(27.63 ± 10.87) %”. For the same substance, the swell value ([1]; 29 day) was 1.31 ± 0.16 mL, the swell value ([2]; 0 day) was 1.00 ± 0.08 mL and the inhibition rate ([2]; 20 day) was <4.41> %. The swell rate ([2]; 20 day) was “(51.65 ± 15.35%”, the swell value ([2]; 20 day) was 1.51 ± 0.11 mL and the inhibition rate ([2]; 22 day) was <17.61> %. For the same substance, the swell rate ([2]; 22 day) was “(49.63 ± 25.60) %”, the swell value ([2]; 22 day) was 1.48 ± 0.15 mL and the inhibition rate ([2]; 23 day) was <20.98> %. The swell rate ([2]; 23 day) was “(49.20 ± 19.86) %”, the swell value ([2]; 23 day) was 1.48 ± 0.12 mL and the inhibition rate ([2]; 25 day) was <24.74> %. For the same substance, the swell rate ([2]; 25 day) was “(46.43 ± 15.37) %”, the swell value ([2]; 25 day) was 1.46 ± 0.11 mL and the inhibition rate ([2]; 28 day) was <27.88> %. For the same substance, the swell rate ([2]; 28 day) was “(37.24 ± 17.23) %”, the swell value ([2]; 28 day) was 1.36 ± 0.09 mL and the inhibition rate ([2]; 31 day) was <26.03> %. For the same substance, the swell rate ([2]; 31 day) was “(36.24 ± 14.64) %” and the swell value ([2]; 31 day) was 1.35 ± 0.08 mL.
